{
  "source": "patent US12616713B2",
  "about": "“Methods for enhancing vascular density” (priority 2016, dated 2026)",
  "key": {"C57BL/6J mice [1]": {"tested_on": "C57BL/6J mice", "experiment": "Treadmill exercise training with or without NMN, muscle capillaries", "type": "in vivo, mouse", "procedure": "Mice were acclimatized to the treadmill system for 3 days prior to the start of exercise training by running at 10 m/min for 20 min. The animals that were successfully acclimatized were then subjected to running at 15-20 m/min at 5° inclination for 30 minutes once daily for one month. Freshly isolated whole quadriceps and gastrocnemius muscle samples were mounted in OCT compound (Tissue-Tek), placed in an isopentane bath and slowly cooled in liquid nitrogen. Transverse sections at 20 μm-thickness were sectioned on a cryostat (Leica). The sections were fixed in pre-cooled acetone (-20° C.) for 10 min and washed with PBS. […] Slides were washed with PBST and then incubated with anti-rat Alexa Fluor 488-conjugated (Life Technologies) and anti-rabbit Alexa Fluor 594-conjugated (Life Technologies) antibodies diluted to 1:500 in blocking buffer for 2 h at room temperature. Slides were washed again with PBST and mounted with Fluoroshield with DAPI mounting medium (Sigma). Images were acquired using a confocal fluorescence microscope (Nikon A1). Quantification of capillaries and capillary density were performed using ImageJ software. TUNEL staining was performed in muscle sections using in situ BrdU-Red DNA fragmentation (TUNEL) assay kit (Abcam) as per manufacturer's protocol."}, "HUVECs": {"tested_on": "HUVECs", "experiment": "Tube formation assay, HUVECs after H2O2", "type": "cell-based, human", "details": "H2O2 150 μM 1 h, NMN 500 μM 10 h", "procedure": "Formation of tube networks was assessed as described before (Borradaile and Pickering, 2009, Aging Cell 8, 100-112). ECs were seeded at 10,000 cells per well in a 24-well plate (Corning) coated with 150 μL Cultrex reduced growth factor basement membrane extract (Trevigen). The cells were supplemented with C2C12 CM or EBM-2 medium containing VEGF (30 ng/mL) or FGF (30 ng/mL). NMN (0.5 mM) and NaHS (0.1 mM) were added to the media wherever mentioned. Following an 18 h-incubation, resulting tube networks were analyzed by light microscopy (Nikon Eclipse TiE). For tube formation assays with H2O2 treatment, cells were incubated with 150 μM H2O2 for 1 h before seeding and imaged after 10 h-incubation. The number of branch points and total length of tubule networks were quantified by ImageJ software."}, "SIRT1": {"tested_on": "SIRT1", "experiment": "SIRT1 protein levels in HUVECs (Western blot)", "type": "cell-based, human", "details": "NaHS 0.1 mM and/or NMN 0.5 mM", "procedure": "SDS-PAGE and Western blot analysis were performed according to standard procedures and detected with the ECL detection kit (Bio-rad, Australia). For Western blot analysis antibodies directed against SIRT1 (Sigma), SIRT3 (CST), SIRT6 (SantaCruz), eNOS (Cell Signaling Technology or CST), cleaved Notch1 (CST), total OXPHOS cocktail (Abcam), PGC-1α (Millipore), VEGF (Abcam), VEGFR2 (Abcam), phospho-VEGFR2 (Millipore), Actin (Cell Signaling Technology), Tubulin (Sigma), 14-3-3 (Cell Signaling Technology), GAPDH (SantaCruz) were used. Quantification of band intensities by densitometry was carried out using ImageJ software."}, "C57BL/6J mice [2]": {"tested_on": "C57BL/6J mice", "experiment": "Treadmill endurance testing", "type": "in vivo, mouse", "procedure": "Endurance testing. Treadmill tests were carried out on a 1050-RM Exer 3/6 Open Treadmill (Columbus Instruments, OH). Mice were acclimatized to the treadmill system for 3 days prior to endurance testing by running at 10-15 m/min for 20 min. In low intensity endurance testing, the speed started at 5 m/min for 5 min (warm up), and then the speed was increased by 1 every minute until 21 m/min and kept constant. In high intensity endurance testing, the speed started at 13 m/min for 5 min (warm up) at 5° inclination, and then the speed was increased by 1 every minute until 20 m/min and kept constant for 20 min. Every 20 min, the speed was increased by 5 m/min and held constant for 20 min. Mice were considered exhausted when they sat on the shocker plate for more than 10 sec without attempting to reinitiate running."}, "SIRT1-iKO and WT mice": {"tested_on": "SIRT1-iKO and WT mice", "experiment": "Hindlimb ischemia model", "type": "in vivo, mouse", "details": "8-month old mice, femoral ligation, NMN 20 days; SIRT1-dependent", "procedure": "The effect of NMN in ischemia-induced vessel formation was assessed in a murine model of hindlimb ischemia using SIRT1-iKO and WT mice according to the published protocol (Limbourg et al., 2009, Nat Protoc 4, 1737-1746). Treatment of animals with NMN (500 mg/kg/day) via drinking water started one week prior to femoral ligation and was continued until the end of the experiment. The blood flow in the ischemic limb was measured using contrast-enhanced ultrasound imaging, 20 days after the surgery.\nMice were anesthetized with isoflurane (1.5-2%, 500 ml 02/min), hindlimbs were shaved using depilatory cream and a 27-gauge catheter was placed into each mouse's tail and kept in place with surgical tape. […] A cine loop was recorded at a frame rate of 20 frames/s for a total of 1,000 frames. […] The difference in maximum and minimum video intensity was determined as the peak enhancement and was the variable used to determine muscle perfusion.\nFreshly isolated whole quadriceps and gastrocnemius muscle samples were mounted in OCT compound (Tissue-Tek), placed in an isopentane bath and slowly cooled in liquid nitrogen. […] Images were acquired using a confocal fluorescence microscope (Nikon A1). Quantification of capillaries and capillary density were performed using ImageJ software. […]"}, "C57BL/6J mice [3]": {"tested_on": "C57BL/6J mice", "experiment": "Contrast-enhanced ultrasound of hindlimb muscle perfusion", "type": "in vivo, mouse", "details": "20-month old mice, NMN-treated versus vehicle", "procedure": "Mice were anesthetized with isoflurane (1.5-2%, 500 ml 02/min), hindlimbs were shaved using depilatory cream and a 27-gauge catheter was placed into each mouse's tail and kept in place with surgical tape. Each mouse was placed in a supine position on a platform heated to 38° C. with each paw taped to a surface electrode to monitor ECG, heart rate, and respiratory rate. Contrast-enhanced ultrasound (CEU) (Vevo 2100, Visualsonics, Canada) was performed at an imaging frequency of 18 MHz. The probe was placed on the medial side of the leg to image the lower hindlimb in a sagittal plane. A bolus injection of microbubbles (Vevo MicroMarker, Canada) were injected through the tail vein catheter according to the manufacturer's instructions. A cine loop was recorded at a frame rate of 20 frames/s for a total of 1,000 frames. Curve fit analysis was used to measure echo power over time. The difference in maximum and minimum video intensity was determined as the peak enhancement and was the variable used to determine muscle perfusion."}, "[4]": {"details": "20-month old mice, low intensity treadmill test"}},
  "data": [
    {"smiles": "NC(=O)c1ccc[n+]([C@@H]2O[C@H](COP(=O)([O-])O)[C@@H](O)[C@H]2O)c1", "note": "[NMN, nicotinamide mononucleotide]", "values": [
      {"measurement": "more capillaries in gastrocnemii than sedentary mice", "setting": "C57BL/6J mice [1]; exercised and NMN-treated mice", "value": 70, "unit": "%"},
      {"measurement": "increase in vascular density and exercise capacity in conjunction with exercise versus without exercise", "setting": "C57BL/6J mice [1]; mice (summary statement)", "value": "greater"},
      {"measurement": "capillary density or exercise capacity", "setting": "C57BL/6J mice [1]; young mice kept sedentary, NMN 400 mg/kg/day", "value": "did not increase"},
      {"measurement": "increase in capillary density", "setting": "C57BL/6J mice [1]; young mice, one month endurance training plus NMN 400 mg/kg/day, versus sedentary", "value": 3.2, "unit": "fold"},
      {"measurement": "VEGF mediated angiogenesis (tube formation) after treatment with H2O2", "setting": "HUVECs", "value": "promoted VEGF mediated angiogenesis"},
      {"measurement": "SIRT1 protein levels", "setting": "SIRT1", "value": "increased SIRT1 protein levels"},
      {"measurement": "distance run further than untreated mice", "setting": "C57BL/6J mice [2]; 20-month old mice, high-endurance exercise regimen", "value": 80, "unit": "%"},
      {"measurement": "distance run until exhaustion", "setting": "C57BL/6J mice [2]; [4]", "value": 686, "unit": "meters"},
      {"measurement": "low-intensity endurance, improvement over the untreated mice", "setting": "C57BL/6J mice [2]; [4]", "value": 56, "unit": "%"},
      {"measurement": "time and distance to exhaustion (endurance)", "setting": "C57BL/6J mice [2]; 31-month old mice, low intensity treadmill test", "value": "significant trend towards increased time and distance to exhaustion"},
      {"measurement": "exercise capacity, including endurance", "setting": "C57BL/6J mice [2]; mice (summary statement)", "value": "increased exercise capacity"},
      {"measurement": "capillary density of ischemic gastrocnemius", "setting": "SIRT1-iKO and WT mice", "value": "restored"},
      {"measurement": "relative blood volume (peak enhancement) of ischemic limb", "setting": "SIRT1-iKO and WT mice", "value": "restored"},
      {"measurement": "resting muscle perfusion (peak enhancement)", "setting": "C57BL/6J mice [3]", "value": "increased resting muscle perfusion"}
    ]}
  ]
}
